# Assay results published in US11807644B2 (PMV Pharmaceuticals, Inc., priority 2020, dated 2023).
# Target: T1, recombinant His-tag Y220C p53 DBD protein (Homo sapiens, UniProt P04637, Y220C)
# T1 construct: recombinant His-tag Y220C p53 DBD protein (amino acids #˜94-312)
# Experiment: In vitro DNA binding activity assay (TR-FRET): binding of His-tag Y220C p53 DBD to biotin-labeled consensus DNA
# Format: biochemical
# Settings: SC150 = concentration to increase DNA binding by […], His-tag Y220C p53 DBD, biotin-labeled consensus DNA
row,Y220C SC150 (μM),SMILES
1,** (** = 0.1 μM ≤ SC150 < 0.5 μM),"CN1CCC(Nc2cccc3c2cc(-c2nc(CNC(=O)c4cnn(C)c4)no2)n3CC(F)(F)F)CC1 [Compound 140B, 1-methyl-N-[(5-{4-[(1-methylpiperidin-4-yl)amino]-1-(2,2,2-trifluoroethyl)-1H-indol-2-yl}-1,2,4-oxadiazol-3-yl)methyl]-1H-pyrazole-4-carboxamide]"
2,** (** = 0.1 μM ≤ SC150 < 0.5 μM),"CN1CCC(Nc2cccc3c2cc(-c2nc(CNC(=O)c4ccn(C)n4)no2)n3CC(F)(F)F)CC1 [Compound 141B, 1-methyl-N-[(5-{4-[(1-methylpiperidin-4-yl)amino]-1-(2,2,2-trifluoroethyl)-1H-indol-2-yl}-1,2,4-oxadiazol-3-yl)methyl]-1H-pyrazole-3-carboxamide]"
3,* (* = 0 μM ≤ SC150 < 0.1 μM),"CN1CCC(Nc2cccc3c2cc(-c2noc(CNc4ccccc4)n2)n3CC(F)(F)F)CC1 [Compound 142B, N-(1-methylpiperidin-4-yl)-2-{5-[(phenylamino)methyl]-1,2,4-oxadiazol-3-yl}-1-(2,2,2-trifluoroethyl)-1H-indol-4-amine]"
4,* (* = 0 μM ≤ SC150 < 0.1 μM),"CN1CCC(Nc2cccc3c2cc(-c2noc(CNC(=O)c4cccs4)n2)n3CC(F)(F)F)CC1 [Compound 143B, N-[(3-{4-[(1-methylpiperidin-4-yl)amino]-1-(2,2,2-trifluoroethyl)-1H-indol-2-yl}-1,2,4-oxadiazol-5-yl)methyl]thiophene-2-carboxamide]"
5,* (* = 0 μM ≤ SC150 < 0.1 μM),"CN1CCC(Nc2cccc3c2cc(-c2noc(CNC(=O)c4ccccc4)n2)n3CC(F)(F)F)CC1 [Compound 144B, N-[(3-{4-[(1-methylpiperidin-4-yl)amino]-1-(2,2,2-trifluoroethyl)-1H-indol-2-yl}-1,2,4-oxadiazol-5-yl)methyl]benzamide]"
6,* (* = 0 μM ≤ SC150 < 0.1 μM),"CN1CCC(Nc2cccc3c2cc(-c2noc(CNC(=O)c4ccc(Cl)cc4)n2)n3CC(F)(F)F)CC1 [Compound 148B, 4-chloro-N-[(3-{4-[(1-methylpiperidin-4-yl)amino]-1-(2,2,2-trifluoroethyl)-1H-indol-2-yl}-1,2,4-oxadiazol-5-yl)methyl]benzamide]"
7,* (* = 0 μM ≤ SC150 < 0.1 μM),"CN1CCC(Nc2cccc3c2cc(-c2noc(CNC(=O)c4nccs4)n2)n3CC(F)(F)F)CC1 [Compound 149B, N-[(3-{4-[(1-methylpiperidin-4-yl)amino]-1-(2,2,2-trifluoroethyl)-1H-indol-2-yl}-1,2,4-oxadiazol-5-yl)methyl]-1,3-thiazole-2-carboxamide]"
8,* (* = 0 μM ≤ SC150 < 0.1 μM),"CN1CCC(Nc2cccc3c2cc(-c2noc(CNC(=O)c4ccc(F)cc4)n2)n3CC(F)(F)F)CC1 [Compound 150B, 4-fluoro-N-[(3-{4-[(1-methylpiperidin-4-yl)amino]-1-(2,2,2-trifluoroethyl)-1H-indol-2-yl}-1,2,4-oxadiazol-5-yl)methyl]benzamide]"
9,* (* = 0 μM ≤ SC150 < 0.1 μM),"CN1CCC(Nc2cccc3c2cc(-c2noc(CNC(=O)c4ccc(C#N)cc4)n2)n3CC(F)(F)F)CC1 [Compound 151B, 4-cyano-N-[(3-{4-[(1-methylpiperidin-4-yl)amino]-1-(2,2,2-trifluoroethyl)-1H-indol-2-yl}-1,2,4-oxadiazol-5-yl)methyl]benzamide]"
10,* (* = 0 μM ≤ SC150 < 0.1 μM),"CN1CCC(Nc2cccc3c2cc(-c2noc(CNC(=O)c4ccn(C)c4)n2)n3CC(F)(F)F)CC1 [Compound 152B, 1-methyl-N-[(3-{4-[(1-methylpiperidin-4-yl)amino]-1-(2,2,2-trifluoroethyl)-1H-indol-2-yl}-1,2,4-oxadiazol-5-yl)methyl]-1H-pyrrole-3-carboxamide]"
11,* (* = 0 μM ≤ SC150 < 0.1 μM),"CN1CCC(Nc2cccc3c2cc(-c2noc(CNC(=O)Nc4ccccc4)n2)n3CC(F)(F)F)CC1 [Compound 153B, 3-[(3-{4-[(1-methylpiperidin-4-yl)amino]-1-(2,2,2-trifluoroethyl)-1H-indol-2-yl}-1,2,4-oxadiazol-5-yl)methyl]-1-phenylurea]"
